Measurements: patent US12213990B2, “A3 adenosine receptor ligand for use for achieving a fat loss effect” (CAN-FITE BIOPHARMA LTD., priority 2019, dated 2025)

Experiments:
3T3-L1 adipocytes [1] = test: 3H-thymidine incorporation assay, proliferation of 3T3-L1 adipocytes; type: cell-based; conditions: 3T3-L1 cells
Protocol: 3T3-L1 pre-adipocytes were purchased from American Type Culture Collection (ATCC; Manassas, VA, USA). The pre-adipocytes were maintained in Dulbecco's modified Eagle's medium (DMEM; Hyclone, South Logan, UT, USA), and supplemented with 10% newborn calf serum (Hyclone) and antibiotics (Hyclone) at 37° C. in 5% CO2. To induce adipocyte differentiation, the pre-adipocytes were plated at 24-well plates. After confluence, the medium was changed and 10 μg/ml insulin, 1 μM DEX and 0.5 mM IBMX was added. Two days later the media were changed to the basal medium supplemented with 10% FBS and 10 μg/ml insulin. The media were replaced every 2 days for a period of 8-14 days. To evaluate cell proliferation, ^3H-thymidine incorporation assay was used. The 3T3-L1 cells (5,000 cells/well) were incubated with 5 or 10 nM CF102 96-well plate for 48 hours. Each well was pulsed with […] ^3H-thymidine for the last 24 hours. Cells were harvested and the ^3H-thymidine uptake was determined in an LKB liquid scintillation counter (LKB, Piscataway, NJ, USA).

3T3-L1 adipocytes [2] = test: Oil-Red-O staining, accumulation of lipid droplets in 3T3-L1 adipocytes; type: cell-based; conditions: 5 nM CF102, 48 h, p=0.01
Protocol: Pre-adipocytes were incubated in a differentiated medium (DMEM high glucose+10% FBS) containing 10 μg/ml insulin, 1 μM DEX and 0.5 mM IBMX and treated with 5 nM CF102 for 48 h to evaluate its potential anti-adipogenic effect. The accumulation of lipid droplets was evaluated by staining with Oil-Red-O. Briefly, cells were washed with PBS, incubated with 3.7% HCHO for 1 hr and then, incubated with Oil-Red-O solution for 45 min. Cells were washed very well to remove the excess of Oil-Red-O, visualized and photographed under an Olympus microscope with a Leica camera. For the quantification of lipid accumulation, cells were dissolved in isopropanol and the optical density was read on a Dynatech Corp. Microelisa reader (Chantilly, VA) at 595 nm. The degree accumulation of lipid droplets was proportional to the optical density.

[3] = Body weight in diet-induced obesity mouse model (HFD vs. regular diet); type: in vivo, C57BL/6J mice; conditions: HFD 12 weeks, then 100 μg/Kg daily oral for 4 weeks
Description: Because complications from obesity such as diabetes and cardiovascular disease usually require decades, surrogate animal models are important for studying the molecular aspects of obesity and its pathophysiological effects. One of these models that are gaining increasing attention is the diet-induced obesity model in mouse. The present protocol is designed to evaluate effects of CF102 in an in vivo mouse model of Diet-Induced obesity. The mice utilized are C57BL/6J males, 4-6 weeks old (The Jackson Laboratory, stock 000664). 60 kcal % fat diet (Research Diets, D12492i) Group I-II: Naïve animals (n=20) were fed with a regular diet, served as a control group and were defined as ‘Lean Diet’ After 12 weeks, mice were divided into 2 groups (n=10 per group), the first was treated with a daily oral administration of CF102 (Can-Fite BioPharma, Cat #A14402-10; 100 μg/Kg) for 4 weeks and the second with vehicle only. Group III-IV—Naïve mice (n=20) were fed with HFD for 12 weeks. After 12 weeks, mice were divided into 2 groups (n=10 per group), the first was treated with daily oral administration of CF102 (Can-Fite BioPharma, Cat #A14402-10; 100 μg/Kg) for 4 weeks and the second with vehicle only.

[4] = Body weight in STZ-induced diabetic rat model; type: in vivo, Sprague Dawley rats; conditions: STZ diabetic rats, 100 μg/kg orally twice daily for five days
Protocol: Diabetes is one of the complications of obesity. Therefore, the effect of an A3AR ligand on body weight in a diabetic model was also evaluated.
Sprague Dawley male rats (8-10 week old) were administered IP with Streptozotocin (STZ) at a dose level of 60 mg/kg in citrate buffer to create a diabetic model. Only animals with blood glucose level higher than 250 mg/dL were included in the study. CF602, an allosteric A3AR ligand was administered orally twice daily for five days at a dose of 100 μg/kg. Body weight was monitored after 5 days.

Row | SMILES | reduction of adipocyte proliferation compared to the control measurement (3T3-L1 adipocytes [1]; 5 nM CF102, 48 hours) | reduction of adipocyte proliferation compared to the control measurement (3T3-L1 adipocytes [1]; 10 nM CF102, 48 hours) [%] | lipid accumulation (OD value at 595 nm) vs. vehicle treated control (3T3-L1 adipocytes [2]) | weight loss, mice under HFD [3] | weight change from baseline (body weight) [4]
1 | CNC(=O)[C@H]1O[C@@H](n2cnc3c(NCc4cccc(I)c4)nc(Cl)nc32)[C@H](O)[C@@H]1O [CF102, 2-chloro-N^6-(3-iodobenzyl)-adenosine-5′-N-methyluronamide] | more than 20% | > 40 | inhibition in lipid accumulation | significant (p<0.001) weight loss effect | –
2 | Clc1ccc(Nc2nc3ccccc3c3[nH]c(C4CCCCC4)nc23)cc1Cl [CF602, N-(3,4-Dichloro-phenyl)-2-cyclohexyl-1H-imidazo[4,5-c]quinolin-4-amine] | – | – | – | – | significant (p<0.03) decrease in body weight
